Assay results published in ChEMBL document CHEMBL1201862, “PubChem BioAssay data set” (2004).
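Briefly, cells in 96-well plates were exposed to five compound concentrations for 48 h, and endpoints were estimated by linear interpolation. GI50 is the concentration that inhibits growth by half.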 Activity calls are given as the source filed them. Rule as the data show it: active = GI50 up to about 1.1 µM and inactive = higher.

What was measured:
Assay in all cases: DTP human tumour cell line panel, 48 h
[1] = system: MDA-MB-435
[2] = system: HOP-62
[3] = system: SF-268
[4] = system: NCI-H226
[5] = system: SW-620
[6] = system: NCI/ADR-RES
[7] = system: NCI-H23
[8] = system: T47D
[9] = system: K562
[10] = system: MCF7
[11] = system: SF-295
[12] = system: KM12
[13] = system: MOLT-4
[14] = system: HCT-15
[15] = system: PC-3
[16] = system: SNB-19
[17] = system: M14
[18] = system: A549
[19] = system: HT-29
[20] = system: OVCAR-4
[21] = system: NCI-H522
[22] = system: 786-0
[23] = system: OVCAR-8
[24] = system: UO-31
[25] = system: IGROV-1
[26] = system: SK-OV-3
[27] = system: HOP-92
[28] = system: SK-MEL-28
[29] = system: SF-539
[30] = system: COLO 205
[31] = system: UACC-257
[32] = system: TK-10
[33] = system: RPMI-8226
[34] = system: UACC-62
[35] = system: ACHN
[36] = system: NCI-H460
[37] = system: U-251
[38] = system: BT-549
[39] = system: SK-MEL-2
[40] = system: A498
[41] = system: SNB-75
[42] = system: MDA-MB-231
[43] = system: Hs-578T
[44] = system: EKVX
[45] = system: SN12C
[46] = system: HCC 2998
[47] = system: DU-145
[48] = system: SK-MEL-5
[49] = system: MDA-N
[50] = system: LOX IMVI
[51] = system: RXF 393
[52] = system: HCT-116
[53] = system: OVCAR-3
[54] = system: Malme-3M
[55] = system: CAKI-1
[56] = system: OVCAR-5

CC(=N/NC(=S)N(C)C)/C(=N\NC(=S)N(C)C)c1ccccc1
GI50 [1]: 1870 nM (inactive) | GI50 [2]: 2240 nM (inactive) | GI50 [3]: 2070 nM (inactive) | GI50 [4]: 1710 nM (inactive) | GI50 [5]: 1930 nM (inactive) | GI50 [6]: 2470 nM (inactive) | GI50 [7]: 2320 nM (inactive) | GI50 [8]: 1650 nM (inactive) | GI50 [9]: 5150 nM (inactive) | GI50 [10]: 2840 nM (inactive) | GI50 [11]: 2080 nM (inactive) | GI50 [12]: 2150 nM (inactive) | GI50 [13]: 7160 nM (inactive) | GI50 [14]: 1210 nM | GI50 [15]: 2000 nM (inactive) | GI50 [16]: 2560 nM (inactive) | GI50 [17]: 1970 nM (inactive) | GI50 [18]: 2760 nM (inactive) | GI50 [19]: 3380 nM (inactive) | GI50 [20]: 2020 nM (inactive) | GI50 [21]: 1780 nM (inactive) | GI50 [22]: 2000 nM (inactive) | GI50 [23]: 2020 nM (inactive) | GI50 [24]: 2110 nM (inactive) | GI50 [25]: 1660 nM (inactive) | GI50 [26]: 1980 nM (inactive) | GI50 [27]: 1950 nM (inactive) | GI50 [28]: 1900 nM (inactive) | GI50 [29]: 3660 nM (inactive) | GI50 [30]: 1790 nM (inactive) | GI50 [31]: 1980 nM (inactive) | GI50 [32]: 1590 nM (inactive) | GI50 [33]: 2740 nM (inactive) | GI50 [34]: 1940 nM (inactive) | GI50 [35]: 1710 nM (inactive) | GI50 [36]: 1000 nM (active) | GI50 [37]: 2800 nM (inactive) | GI50 [38]: 2170 nM (inactive) | GI50 [39]: 1990 nM (inactive) | GI50 [40]: 1590 nM (inactive) | GI50 [41]: 2120 nM (inactive) | GI50 [42]: 3100 nM (inactive) | GI50 [43]: 3110 nM (inactive) | GI50 [44]: 1850 nM (inactive) | GI50 [45]: 1470 nM (inactive) | GI50 [46]: 989 nM (active) | GI50 [47]: 5460 nM (inactive) | GI50 [48]: 1640 nM (inactive) | GI50 [49]: 2110 nM (inactive) | GI50 [50]: 3080 nM (inactive) | GI50 [51]: 1460 nM (inactive) | GI50 [52]: 2930 nM (inactive) | GI50 [53]: 1760 nM (inactive) | GI50 [54]: 1750 nM (inactive) | GI50 [55]: 2530 nM (inactive) | GI50 [56]: 2210 nM (inactive)
